{"source": "ChEMBL document CHEMBL5120859", "about": "“Optimization of 4-arylthiophene-3-carboxylic acid derivatives as inhibitors of ANO1: Lead optimization studies toward their analgesic efficacy for inflammatory pain” (Eur J Med Chem, 2022)", "key": {"[1]": {"assay": "Volume of distribution at steady state in C57BL/6 mouse at 40 mg/kg,iv measured upto 24 hrs by HPLC-MS/MS analysis", "type": "ADME, organism-based", "conditions": "in vivo, read-out: Vdss"}, "[2]": {"assay": "MRT (0 to t) in C57BL/6 mouse at 40 mg/kg,iv measured upto 24 hrs by HPLC-MS/MS analysis", "type": "ADME, organism-based", "conditions": "in vivo"}}}
{"smiles": "O=C(Nc1scc(-c2ccc(Cl)cc2)c1C(=O)O)c1cc(F)ccc1F", "values": [{"measurement": "Vd", "setting": "[1]", "result": 0.8, "unit": "L/kg"}, {"measurement": "MRT last at 24 h", "setting": "[2]", "result": 4.9, "unit": "h"}]}
